Measured values as given in the kinase profiling compilation of Christmann-Franck et al. (2016).

How the values were obtained:
Experiment in all cases: SelectScreen, TR FRET
NTRK3 (human) = NTRK3 (human) (UniProt Q16288)
TYK2 JH1 JH2 (human) = TYK2 JH1 JH2 (human) (UniProt P29597)
PIM1 (human) = PIM1 (human) (UniProt P11309)
BMX (human) = BMX (human) (UniProt P51813)
RPS6KB1 (human) = RPS6KB1 (human) (UniProt P23443)
[1] = target: PRKAA1 PRKAB1 PRKAG1 (human) (UniProt P54619+Q13131+Q9Y478); conditions: compound 0.1 µM
IGF1R (human) = IGF1R (human) (UniProt P08069)
ACVR1B (human) = ACVR1B (human) (UniProt P36896)
ACVR1B (human), sequence (P36896 whole entry, looked up): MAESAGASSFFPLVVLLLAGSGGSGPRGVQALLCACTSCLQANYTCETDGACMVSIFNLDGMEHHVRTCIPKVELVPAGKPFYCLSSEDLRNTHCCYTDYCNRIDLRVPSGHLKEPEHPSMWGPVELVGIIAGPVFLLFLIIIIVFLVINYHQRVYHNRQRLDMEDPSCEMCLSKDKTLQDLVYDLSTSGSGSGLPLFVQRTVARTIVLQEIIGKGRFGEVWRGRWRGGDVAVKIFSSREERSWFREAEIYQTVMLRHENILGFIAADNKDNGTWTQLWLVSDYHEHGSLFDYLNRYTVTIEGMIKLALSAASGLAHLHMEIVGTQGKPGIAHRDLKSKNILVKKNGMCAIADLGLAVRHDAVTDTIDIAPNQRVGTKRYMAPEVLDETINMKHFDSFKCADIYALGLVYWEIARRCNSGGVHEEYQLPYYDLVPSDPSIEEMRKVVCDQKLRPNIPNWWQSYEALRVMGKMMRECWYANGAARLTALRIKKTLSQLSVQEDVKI

EPHB2 (human) = EPHB2 (human) (UniProt P29323)
EPHB2 (human), sequence (P29323 whole entry, looked up): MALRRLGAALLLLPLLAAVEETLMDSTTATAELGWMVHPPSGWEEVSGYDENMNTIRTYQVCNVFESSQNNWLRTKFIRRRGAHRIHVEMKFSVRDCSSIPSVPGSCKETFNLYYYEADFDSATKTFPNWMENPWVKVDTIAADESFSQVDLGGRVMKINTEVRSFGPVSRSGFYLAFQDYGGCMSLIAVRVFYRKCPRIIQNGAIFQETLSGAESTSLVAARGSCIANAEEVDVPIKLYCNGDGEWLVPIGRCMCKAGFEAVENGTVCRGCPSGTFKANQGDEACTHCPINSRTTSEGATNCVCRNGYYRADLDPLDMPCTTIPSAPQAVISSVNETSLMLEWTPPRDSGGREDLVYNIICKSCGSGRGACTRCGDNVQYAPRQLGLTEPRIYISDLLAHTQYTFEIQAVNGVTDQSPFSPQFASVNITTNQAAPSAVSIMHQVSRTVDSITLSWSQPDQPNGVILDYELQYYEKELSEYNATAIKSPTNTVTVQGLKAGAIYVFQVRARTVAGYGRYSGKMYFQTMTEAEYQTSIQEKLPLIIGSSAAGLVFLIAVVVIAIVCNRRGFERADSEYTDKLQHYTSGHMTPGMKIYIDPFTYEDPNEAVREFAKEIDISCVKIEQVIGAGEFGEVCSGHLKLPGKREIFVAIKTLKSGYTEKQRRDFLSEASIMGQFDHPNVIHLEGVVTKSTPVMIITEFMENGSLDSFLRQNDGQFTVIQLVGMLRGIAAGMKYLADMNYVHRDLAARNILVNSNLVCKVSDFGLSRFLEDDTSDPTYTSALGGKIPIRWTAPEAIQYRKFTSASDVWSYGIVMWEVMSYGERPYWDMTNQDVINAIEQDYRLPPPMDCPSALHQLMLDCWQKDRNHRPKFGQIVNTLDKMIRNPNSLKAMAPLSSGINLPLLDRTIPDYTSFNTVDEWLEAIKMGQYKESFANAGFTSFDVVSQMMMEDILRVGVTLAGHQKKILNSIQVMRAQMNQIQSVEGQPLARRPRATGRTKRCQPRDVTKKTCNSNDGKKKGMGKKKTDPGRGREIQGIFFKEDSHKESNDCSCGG

PAK1 (human) = PAK1 (human) (UniProt Q13153)
TAOK2 (human) = TAOK2 (human) (UniProt Q9UL54)
JAK1 JH1 JH2 (human) = JAK1 JH1 JH2 (human) (UniProt P23458)
IRAK1 (human) = IRAK1 (human) (UniProt P51617)
PRKCZ (human) = PRKCZ (human) (UniProt Q05513)
PRKCZ (human), sequence (Q05513 whole entry, looked up): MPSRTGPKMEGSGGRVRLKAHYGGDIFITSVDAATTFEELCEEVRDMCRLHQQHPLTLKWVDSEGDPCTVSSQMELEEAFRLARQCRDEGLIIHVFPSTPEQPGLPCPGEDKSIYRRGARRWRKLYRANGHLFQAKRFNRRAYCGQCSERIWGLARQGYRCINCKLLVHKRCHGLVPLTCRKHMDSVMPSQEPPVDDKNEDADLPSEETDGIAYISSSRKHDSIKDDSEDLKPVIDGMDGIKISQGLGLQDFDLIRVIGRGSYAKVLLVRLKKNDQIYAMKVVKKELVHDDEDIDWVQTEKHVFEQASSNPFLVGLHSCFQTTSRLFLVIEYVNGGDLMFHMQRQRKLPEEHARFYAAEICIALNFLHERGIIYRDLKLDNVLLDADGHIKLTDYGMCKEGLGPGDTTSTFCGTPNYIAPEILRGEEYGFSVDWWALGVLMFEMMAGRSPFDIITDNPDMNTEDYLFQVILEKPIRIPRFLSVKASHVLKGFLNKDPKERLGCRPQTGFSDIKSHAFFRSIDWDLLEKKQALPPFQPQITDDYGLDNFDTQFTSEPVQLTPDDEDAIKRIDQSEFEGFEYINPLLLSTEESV

AKT2 (human) = AKT2 (human) (UniProt P31751)
PRKG2 (human) = PRKG2 (human) (UniProt Q13237)
MAP2K1 (human) = MAP2K1 (human) (UniProt Q02750)
PDPK1 (human) = PDPK1 (human) (UniProt O15530)
[2] = test system: RAF1 (human), P04049 [Y340D/Y341D]
SRPK1 (human) = SRPK1 (human) (UniProt Q96SB4)
MAP2K6 (human) = MAP2K6 (human) (UniProt P52564)
MAPKAPK5 (human) = MAPKAPK5 (human) (UniProt Q8IW41)
CAMK4 (human) = CAMK4 (human) (UniProt Q16566)
PRKCI (human) = PRKCI (human) (UniProt P41743)
MAPK1 (human) = MAPK1 (human) (UniProt P28482)
MAPK1 (human), sequence (P28482 whole entry, looked up): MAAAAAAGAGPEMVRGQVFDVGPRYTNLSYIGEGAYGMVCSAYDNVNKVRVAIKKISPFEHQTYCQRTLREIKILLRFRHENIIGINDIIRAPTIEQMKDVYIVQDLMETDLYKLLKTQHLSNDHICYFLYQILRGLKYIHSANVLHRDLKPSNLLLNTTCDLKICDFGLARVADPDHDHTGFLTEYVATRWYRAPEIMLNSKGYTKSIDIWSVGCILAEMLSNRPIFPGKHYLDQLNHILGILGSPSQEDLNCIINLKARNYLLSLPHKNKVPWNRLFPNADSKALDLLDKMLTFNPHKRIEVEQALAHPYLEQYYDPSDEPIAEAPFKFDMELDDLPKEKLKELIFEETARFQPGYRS

MARK2 (human) = MARK2 (human) (UniProt Q7KZI7)
MARK2 (human), sequence (Q7KZI7 whole entry, looked up): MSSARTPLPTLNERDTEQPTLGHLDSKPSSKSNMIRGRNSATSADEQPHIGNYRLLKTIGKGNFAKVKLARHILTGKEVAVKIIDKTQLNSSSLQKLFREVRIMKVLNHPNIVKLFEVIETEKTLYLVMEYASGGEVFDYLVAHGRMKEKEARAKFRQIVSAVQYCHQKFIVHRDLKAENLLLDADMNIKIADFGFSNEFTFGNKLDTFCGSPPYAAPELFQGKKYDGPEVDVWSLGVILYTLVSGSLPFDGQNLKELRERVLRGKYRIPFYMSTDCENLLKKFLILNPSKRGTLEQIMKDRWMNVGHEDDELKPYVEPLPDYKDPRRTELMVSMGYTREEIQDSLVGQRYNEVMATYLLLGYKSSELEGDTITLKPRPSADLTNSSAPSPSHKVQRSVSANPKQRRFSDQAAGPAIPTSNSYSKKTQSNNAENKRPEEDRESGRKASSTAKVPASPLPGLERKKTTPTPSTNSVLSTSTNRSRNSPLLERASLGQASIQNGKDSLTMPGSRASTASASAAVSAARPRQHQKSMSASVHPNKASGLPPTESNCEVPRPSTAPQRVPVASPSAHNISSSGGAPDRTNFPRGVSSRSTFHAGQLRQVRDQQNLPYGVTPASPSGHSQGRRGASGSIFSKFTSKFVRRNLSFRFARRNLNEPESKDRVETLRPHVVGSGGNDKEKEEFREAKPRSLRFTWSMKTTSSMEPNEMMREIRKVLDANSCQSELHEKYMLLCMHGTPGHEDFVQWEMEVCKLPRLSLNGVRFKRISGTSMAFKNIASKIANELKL

NUAK1 (human) = NUAK1 (human) (UniProt O60285)
DYRK1A (human) = DYRK1A (human) (UniProt Q13627)

RPS6KB1 (human), sequence (P23443 whole entry, looked up): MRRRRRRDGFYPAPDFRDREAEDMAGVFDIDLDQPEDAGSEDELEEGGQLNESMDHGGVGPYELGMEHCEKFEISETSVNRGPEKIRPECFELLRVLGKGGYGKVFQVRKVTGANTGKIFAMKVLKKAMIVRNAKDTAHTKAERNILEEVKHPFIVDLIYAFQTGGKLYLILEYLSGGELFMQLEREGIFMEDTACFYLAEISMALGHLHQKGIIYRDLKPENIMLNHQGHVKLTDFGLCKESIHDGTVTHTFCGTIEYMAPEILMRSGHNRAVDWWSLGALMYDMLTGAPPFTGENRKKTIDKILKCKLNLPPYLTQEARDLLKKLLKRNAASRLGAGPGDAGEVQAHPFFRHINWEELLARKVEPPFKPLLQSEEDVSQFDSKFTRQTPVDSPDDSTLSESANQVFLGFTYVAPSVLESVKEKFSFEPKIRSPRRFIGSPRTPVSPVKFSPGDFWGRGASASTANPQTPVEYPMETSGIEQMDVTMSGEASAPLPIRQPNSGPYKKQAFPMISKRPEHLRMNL
BMX (human), sequence (P51813 whole entry, looked up): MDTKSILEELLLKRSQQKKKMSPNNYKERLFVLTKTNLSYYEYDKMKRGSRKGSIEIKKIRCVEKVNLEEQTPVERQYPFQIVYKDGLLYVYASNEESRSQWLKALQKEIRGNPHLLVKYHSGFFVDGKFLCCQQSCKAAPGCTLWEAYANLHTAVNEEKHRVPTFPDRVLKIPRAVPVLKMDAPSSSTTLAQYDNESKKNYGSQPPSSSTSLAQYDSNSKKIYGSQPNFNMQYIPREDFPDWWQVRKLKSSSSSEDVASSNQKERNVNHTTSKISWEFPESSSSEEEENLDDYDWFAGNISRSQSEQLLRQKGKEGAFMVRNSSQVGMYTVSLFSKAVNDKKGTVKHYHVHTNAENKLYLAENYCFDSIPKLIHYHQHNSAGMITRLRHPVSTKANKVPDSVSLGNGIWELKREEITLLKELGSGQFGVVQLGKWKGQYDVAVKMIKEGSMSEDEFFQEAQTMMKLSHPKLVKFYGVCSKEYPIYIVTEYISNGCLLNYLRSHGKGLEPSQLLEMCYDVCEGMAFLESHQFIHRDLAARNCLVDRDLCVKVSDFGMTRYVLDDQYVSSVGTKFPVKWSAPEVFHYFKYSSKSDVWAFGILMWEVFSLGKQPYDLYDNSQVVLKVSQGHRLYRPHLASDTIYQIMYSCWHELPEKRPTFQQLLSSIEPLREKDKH
PIM1 (human), sequence (P11309 whole entry, looked up): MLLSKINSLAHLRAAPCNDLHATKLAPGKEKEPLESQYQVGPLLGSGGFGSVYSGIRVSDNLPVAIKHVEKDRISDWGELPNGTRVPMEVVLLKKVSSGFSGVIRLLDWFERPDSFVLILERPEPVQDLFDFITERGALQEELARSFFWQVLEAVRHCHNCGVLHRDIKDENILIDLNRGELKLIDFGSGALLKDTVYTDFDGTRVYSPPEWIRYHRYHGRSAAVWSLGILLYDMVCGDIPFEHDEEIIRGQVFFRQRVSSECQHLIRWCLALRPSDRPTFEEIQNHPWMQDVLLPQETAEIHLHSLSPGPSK

- inhibition (NTRK3 (human); compound 0.1 µM): 18.8%
- inhibition (NTRK3 (human); compound 1.0 µM): 34.5%
- inhibition (NTRK3 (human); compound 10.0 µM): 77.1%
- inhibition (TYK2 JH1 JH2 (human); compound 0.1 µM): 5.1%
- inhibition (TYK2 JH1 JH2 (human); compound 1.0 µM): 8%
- inhibition (TYK2 JH1 JH2 (human); compound 10.0 µM): 23.7%
- inhibition (PIM1 (human); compound 0.1 µM): 6%
- inhibition (PIM1 (human); compound 1.0 µM): 5.4%
- inhibition (PIM1 (human); compound 10.0 µM): 23.6%
- inhibition (BMX (human); compound 0.1 µM): 7.2%
- inhibition (BMX (human); compound 1.0 µM): 7.7%
- inhibition (BMX (human); compound 10.0 µM): -77.3%
- inhibition (RPS6KB1 (human); compound 0.1 µM): 5.5%
- inhibition (RPS6KB1 (human); compound 1.0 µM): 19.7%
- inhibition (RPS6KB1 (human); compound 10.0 µM): 25.1%
- inhibition [1]: 2.1%
- inhibition (IGF1R (human); compound 0.1 µM): 16.4%
- inhibition (IGF1R (human); compound 1.0 µM): 15.3%
- inhibition (IGF1R (human); compound 10.0 µM): 16.7%
- inhibition (ACVR1B (human); compound 0.1 µM): 12.8%
- inhibition (ACVR1B (human); compound 1.0 µM): 12.6%
- inhibition (ACVR1B (human); compound 10.0 µM): 10.1%
- inhibition (EPHB2 (human); compound 0.1 µM): 8.6%
- inhibition (EPHB2 (human); compound 1.0 µM): 8%
- inhibition (EPHB2 (human); compound 10.0 µM): 3.5%
- inhibition (PAK1 (human); compound 0.1 µM): 19.6%
- inhibition (PAK1 (human); compound 1.0 µM): 18.5%
- inhibition (PAK1 (human); compound 10.0 µM): -12.1%
- inhibition (TAOK2 (human); compound 0.1 µM): 10.9%
- inhibition (TAOK2 (human); compound 1.0 µM): 7%
- inhibition (TAOK2 (human); compound 10.0 µM): -17.5%
- inhibition (JAK1 JH1 JH2 (human); compound 0.1 µM): 7.6%
- inhibition (JAK1 JH1 JH2 (human); compound 1.0 µM): 12.3%
- inhibition (JAK1 JH1 JH2 (human); compound 10.0 µM): 9.4%
- inhibition (IRAK1 (human); compound 0.1 µM): 7.1%
- inhibition (IRAK1 (human); compound 1.0 µM): 27.1%
- inhibition (IRAK1 (human); compound 10.0 µM): 66.3%
- inhibition (PRKCZ (human); compound 0.1 µM): 9.2%
- inhibition (PRKCZ (human); compound 1.0 µM): 9.9%
- inhibition (PRKCZ (human); compound 10.0 µM): 6.9%
- inhibition (AKT2 (human); compound 0.1 µM): 9.8%
- inhibition (AKT2 (human); compound 1.0 µM): 11.3%
- inhibition (AKT2 (human); compound 10.0 µM): 15.6%
- inhibition (PRKG2 (human); compound 0.1 µM): 12.8%
- inhibition (PRKG2 (human); compound 1.0 µM): 14.8%
- inhibition (PRKG2 (human); compound 10.0 µM): 53.5%
- inhibition (MAP2K1 (human); compound 0.1 µM): 25.7%
- inhibition (MAP2K1 (human); compound 1.0 µM): 23.8%
- inhibition (MAP2K1 (human); compound 10.0 µM): 13.5%
- inhibition (PDPK1 (human); compound 0.1 µM): 3.3%
- inhibition (PDPK1 (human); compound 1.0 µM): 9.3%
- inhibition (PDPK1 (human); compound 10.0 µM): 25.4%
- inhibition ([2]; compound 0.1 µM): 26.2%
- inhibition ([2]; compound 1.0 µM): 25.4%
- inhibition ([2]; compound 10.0 µM): 7%
- inhibition (SRPK1 (human); compound 0.1 µM): 11.1%
- inhibition (SRPK1 (human); compound 1.0 µM): 11.5%
- inhibition (SRPK1 (human); compound 10.0 µM): 12.5%
- inhibition (MAP2K6 (human); compound 0.1 µM): 9.7%
- inhibition (MAP2K6 (human); compound 1.0 µM): 9.1%
- inhibition (MAP2K6 (human); compound 10.0 µM): 7.4%
- inhibition (MAPKAPK5 (human); compound 0.1 µM): 5.2%
- inhibition (MAPKAPK5 (human); compound 1.0 µM): 6.7%
- inhibition (MAPKAPK5 (human); compound 10.0 µM): 7.9%
- inhibition (CAMK4 (human); compound 0.1 µM): 13.6%
- inhibition (CAMK4 (human); compound 1.0 µM): 10.4%
- inhibition (CAMK4 (human); compound 10.0 µM): 0.8%
- inhibition (PRKCI (human); compound 0.1 µM): 10.5%
- inhibition (PRKCI (human); compound 1.0 µM): 10.2%
- inhibition (PRKCI (human); compound 10.0 µM): 8.8%
- inhibition (MAPK1 (human); compound 0.1 µM): 12.7%
- inhibition (MAPK1 (human); compound 1.0 µM): 8.8%
- inhibition (MAPK1 (human); compound 10.0 µM): -8.1%
- inhibition (MARK2 (human); compound 0.1 µM): 12.1%
- inhibition (MARK2 (human); compound 1.0 µM): 14.2%
- inhibition (MARK2 (human); compound 10.0 µM): 19.7%
- inhibition (NUAK1 (human); compound 0.1 µM): -10.5%
- inhibition (NUAK1 (human); compound 1.0 µM): 13.6%
- inhibition (NUAK1 (human); compound 10.0 µM): 63.9%
- inhibition (DYRK1A (human); compound 0.1 µM): 10.7%
- inhibition (DYRK1A (human); compound 1.0 µM): 33.3%
- inhibition (DYRK1A (human); compound 10.0 µM): 79%
Structure (SMILES): Cn1cc(-c2cnc3ccc4ccc(CC(=O)NCc5ccccn5)cc4c(=O)c3c2)cn1
